# Laboratory results: publication PMC7377239, “Cardiovascular Effects of Polychlorinated Biphenyls and Their Major Metabolites” (Environmental Health Perspectives, 2020)
# Where two headings read alike, the source gives them in different places.
# How the values were obtained:
# [1] = tested on: iCell endothelial cells (human iPSC-derived ECs); assay: High-content imaging cytotoxicity in iCell endothelial cells, 24 h; type: cell-based; settings: Homo sapiens, Endothelial cell, iPSC-EC, 24 hr; for viability at 0.1 µM / activity at 0.1 µM: 0.10 µM; for minimal effective concentration: top concentration 100.00 µM
# Method: The culture conditions of iCell®-endothelial cells were as reported elsewhere ([Iwata et al. 2017]). Briefly, T75 flasks were coated with a fibronectin solution ( 3 μg/cm^2 ) followed by incubation for 1–2 h. Cells were thawed for 3 min in a 37°C water bath. Thawed cells were added to maintenance medium made of VascuLife VEGF Medium Complete Kit, excluding the supplied FBS, and iCell® Endothelial Cells Medium Supplement. The final formulation of the maintenance medium is detailed in ([Iwata et al. 2017]). The aliquoted fibronectin solution was aspirated from the T75 flasks, and cells were seeded at 1.0×10^4 cells/cm^2 . Cells were maintained at 37°C and 5% CO2 with media changes occurring every 2 d and passaged every 3–4 d using TrypLE™ Express. All experiments were conducted on cells between passages 1 and 5.
# Cytotoxicity was assessed in parallel experiments. For iCell®-endothelial cells, 384-well plates were coated with a 30μg/mL fibronectin solution ( 10μL/well ) and incubated for 2 h at RT. iCell®-endothelial cells were dissociated with TrypLE™ Express and prepared into a solution to achieve 750 cells per well and 50μL of total volume. The fibronectin solution was removed from the 384-well plate, and cells were plated. For HUVECs, similar dissociation and the same cell density were used for plating with the exclusion of the fibronectin solution. Cells were incubated at 37°C and 5% CO2 until a monolayer was formed, typically 3–5 d. 2×PCB plates were created with the requisite maintenance medium. Before treatment, the medium in the wells was exchanged to 25μL/well of fresh maintenance medium. 2×PCB chemical solutions ( […] ) were added. After 24 h incubation at 37°C and 5% CO2 , cells were stained with Hoechst 33342, MitoTracker™ Orange, and calcein AM for 20 min before replacing the staining media with FluoroBright DMEM. Cell culture plates were imaged using the ImageXpress® Micro Confocal high-content imaging system (Molecular Devices). Images were acquired at 10× magnification with DAPI, TRITC, or FITC filter (Hoechst 33342, MitoTracker™, or calcein AM, respectively). The multiwavelength cell scoring applications module in MetaXpress™ (Molecular Devices) was used to analyze the images.
# (§1) Phenotypic responses were quantitatively assessed using concentration–response modeling as detailed elsewhere ([Sirenko et al. 2017]). Briefly, phenotypic readouts were normalized to vehicle controls and fit to a four-parameter logistic model in R studio software (version 3.1.1; R Development Core Team). Following EPA guidance on dose–response modeling, a cutoff of one standard deviation across means of vehicle control (i.e., 0.5% vol/vol DMSO in cell culture media) wells was applied to determine the point-of-departure (POD) values ([U.S. EPA 2012]). In the absence of a concentration–response, the highest tested concentration (i.e., 100μM ) was assigned as “no observable adverse effect level.” The concentration–response assessment R script, as well as templates for vehicle and concentration–response data, are available as a supplement to Sirenko et al. ([2017]). The ability of physicochemical properties to predict differences in PODs were evaluated by multiregression and mixed-effects modeling using R.
# HUVECs = assay: Tube formation (tubulogenesis) assay in HUVECs, 18 h; type: cell-based, human; settings: Homo sapiens, HUVEC, 18 h, HUVECs; for activity at 0.1 µM: 0.10 µM; for minimal effective concentration: top concentration 100.00 µM
# Method: Similar to the cultivation of iCell®-endothelial cells, HUVEC maintenance and experimentation are detailed elsewhere ([Iwata et al. 2017]). Briefly, HUVECs were thawed, seeded, and grown in T75 tissue culture flasks in Medium 199 with EGM™-2 BulletKits™. HUVECs were incubated at regular cell culture conditions, 37°C and 5% CO2 , and passaged every 2–3 d using TrypLE™ Express. To ensure adequate endothelial function, experiments were performed with cells between passages 1 and 5.
# Tube formation assays were performed on Geltrex™ LDEV-free reduced growth factor basement membrane using both iCell®-endothelial cells and HUVECs in 384-well format exactly as detailed in Iwata et al. ([2017]). Negative controls included media-only and vehicle control (i.e., 0.5% vol/vol DMSO in cell culture media) wells. Positive assay controls were consistent with previously published reports ([Iwata et al. 2017]) and included TAB ( 50μM ) as a cytotoxic control, and nocodazole ( 0.01–1μM ), suramin ( 0.5–50μM ), histamine ( 0.1–100μM ), and chloroquine ( 1–500μM ) as chemicals associated with specific effects on ECs. Each test chemical was screened in triplicate for each concentration. Briefly, for iCell®-endothelial cells, starvation media consisted of VascuLife® basal medium with 4 mM L-glutamine LifeFactor and 0.1% iCell®-endothelial cells medium supplement. To counter dilution effects, a 2× concentration of the HUVEC maintenance medium supplemented with additional VEGF was created (EGM™-2 BulletKits™ at 2× concentration; also the VEGF component was replaced with 12.5 ng/mL VEGF). Geltrex™ LDEV-free reduced growth factor basement membrane was thawed overnight and dispensed into 384-well plates ( 10μL/well ) with tapping and rotating to evenly coat. The plates were incubated for 1 h in a cell culture incubator at 37°C and 5% CO2 . A 2× PCB plate (containing all of the PCBs and metabolites in dose–response) was prepared in basal media and added, 25μL per well, to the Geltrex™ coated plates. On separate plates, cells were seeded 7,500 (iPSC- ECs) or 3,500 (HUVEC) cells/well. Cells were exposed to chemicals overnight at 37°C and 5% CO2 and stained with 3× concentration of calcein AM ( 25μL /well, 6μmol/L ) for 15 min before imaging. Images were captured at 4× magnification with the FITC filter (calcein AM). Images were analyzed with the angiogenesis module software within MetaXpress™ (Molecular Devices).
# as §1
# [2] = 0.00 µM control = 100.00, read-out: endo.cyto.24hr
# [3] = 0.00 µM control = 100.00, read-out: endo.mito.24hr
# [4] = 0.00 µM control = 100.00, read-out: endo.mitoint.24hr
# [5] = 0.00 µM control = 100.00, read-out: endo.nma.24hr
# [6] = 0.00 µM control = 100.00, read-out: endo.tc.24hrs
# [7] = 0.00 µM = 100.00, read-out: huvec.mtl.18hr
# [8] = 0.00 µM = 100.00, read-out: huvec.tlps.18hr
# [9] = 0.00 µM = 100.00, read-out: huvec.tta.18hr
# [10] = 0.00 µM = 100.00, read-out: huvec.ttl.18hr
structure (smiles),measurement,setting,value
Clc1ccc(Cl)c(-c2cc(Cl)ccc2Cl)c1 [PCB52],viability at 0.01 µM,[1]; [2],100%
same,activity at 0.01 µM,[1]; [3],99.8%
same,activity at 0.01 µM,[1]; [4],92.8%
same,activity at 0.01 µM,[1]; [5],103%
same,viability at 0.01 µM,[1]; [6],100%
same,viability at 0.1 µM,[1]; [2],98.4%
same,activity at 0.1 µM,[1]; [3],97.7%
same,activity at 0.1 µM,[1]; [4],87.4%
same,activity at 0.1 µM,[1]; [5],103%
same,viability at 0.1 µM,[1]; [6],98.4%
same,viability at 1 µM,[1]; [2],97.6%
same,activity at 1 µM,[1]; [3],97.5%
same,activity at 1 µM,[1]; [4],92%
same,activity at 1 µM,[1]; [5],100%
same,viability at 1 µM,[1]; [6],97.6%
same,viability at 10 µM,[1]; [2],99.3%
same,activity at 10 µM,[1]; [3],99.4%
same,activity at 10 µM,[1]; [4],86.3%
same,activity at 10 µM,[1]; [5],101%
same,viability at 10 µM,[1]; [6],99.3%
same,viability at 100 µM,[1]; [2],97.2%
same,activity at 100 µM,[1]; [3],97.4%
same,activity at 100 µM,[1]; [4],83.6%
same,activity at 100 µM,[1]; [5],100%
same,viability at 100 µM,[1]; [6],97.2%
same,minimal effective concentration,[1]; read-out: endo.cyto.24hr POD,100 µM
same,minimal effective concentration,[1]; read-out: endo.mito.24hr POD,100 µM
same,minimal effective concentration,[1]; read-out: endo.mitoint.24hr POD,100 µM
same,minimal effective concentration,[1]; read-out: endo.nma.24hr POD,100 µM
same,minimal effective concentration,[1]; read-out: endo.tc.24hrs POD,100 µM
same,activity at 0.01 µM,HUVECs; [7],105%
same,activity at 0.01 µM,HUVECs; [8],114%
same,activity at 0.01 µM,HUVECs; [9],103%
same,activity at 0.01 µM,HUVECs; [10],94.1%
same,activity at 0.1 µM,HUVECs; [7],111%
same,activity at 0.1 µM,HUVECs; [8],126%
same,activity at 0.1 µM,HUVECs; [9],105%
same,activity at 0.1 µM,HUVECs; [10],94.2%
same,activity at 1 µM,HUVECs; [7],108%
same,activity at 1 µM,HUVECs; [8],121%
same,activity at 1 µM,HUVECs; [9],86.8%
same,activity at 1 µM,HUVECs; [10],81.6%
same,activity at 10 µM,HUVECs; [7],100%
same,activity at 10 µM,HUVECs; [8],95%
same,activity at 10 µM,HUVECs; [9],99.7%
same,activity at 10 µM,HUVECs; [10],94.2%
same,activity at 100 µM,HUVECs; [7],97.2%
same,activity at 100 µM,HUVECs; [8],114%
same,activity at 100 µM,HUVECs; [9],94.8%
same,activity at 100 µM,HUVECs; [10],83.5%
same,minimal effective concentration,HUVECs; read-out: huvec.mtl.18hr POD,100 µM
same,minimal effective concentration,HUVECs; read-out: huvec.tlps.18hr POD,100 µM
same,minimal effective concentration,HUVECs; read-out: huvec.tta.18hr POD,100 µM
same,minimal effective concentration,HUVECs; read-out: huvec.ttl.18hr POD,100 µM
